Active and inactive are the calls of the source. The calls are words filed in the database; no cut-off is given here.
Tests used:
[1] = target: Histone deacetylase 2 (Homo sapiens, UniProt Q92769); assay: Inhibition of human recombinant HDAC2 using Ac-Lys(Ac)-7-amino-4-methylcoumarin as substrate after 30 mins by trypsin-coupled fluorogenic assay
[2] = target: Histone deacetylase 1 (Homo sapiens, UniProt Q13547); assay: Inhibition of human recombinant HDAC1 using Ac-Lys(Ac)-7-amino-4-methylcoumarin as substrate after 30 mins by trypsin-coupled fluorogenic assay
Sequence of Histone deacetylase 1 (Q13547 whole entry): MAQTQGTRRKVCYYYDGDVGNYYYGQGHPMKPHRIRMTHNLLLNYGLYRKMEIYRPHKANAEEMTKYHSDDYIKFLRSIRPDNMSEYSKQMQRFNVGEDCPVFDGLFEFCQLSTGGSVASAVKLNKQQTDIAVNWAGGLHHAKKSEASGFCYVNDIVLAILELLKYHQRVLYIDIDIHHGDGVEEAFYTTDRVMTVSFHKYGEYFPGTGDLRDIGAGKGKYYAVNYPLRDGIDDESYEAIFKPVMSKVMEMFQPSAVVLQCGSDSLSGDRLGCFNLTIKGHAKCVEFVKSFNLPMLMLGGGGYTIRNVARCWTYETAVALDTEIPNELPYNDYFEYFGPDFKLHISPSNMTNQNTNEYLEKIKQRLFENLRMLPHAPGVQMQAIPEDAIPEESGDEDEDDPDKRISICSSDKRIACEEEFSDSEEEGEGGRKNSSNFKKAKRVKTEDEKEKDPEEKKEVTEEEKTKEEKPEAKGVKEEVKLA

[3] = target: T1, Protein deacetylase HDAC6 (Homo sapiens, UniProt Q9UBN7); assay: Inhibition of human recombinant HDAC6 using Ac-Lys(Ac)-7-amino-4-methylcoumarin as substrate after 30 mins by trypsin-coupled fluorogenic assay
T1 sequence (Q9UBN7 whole entry): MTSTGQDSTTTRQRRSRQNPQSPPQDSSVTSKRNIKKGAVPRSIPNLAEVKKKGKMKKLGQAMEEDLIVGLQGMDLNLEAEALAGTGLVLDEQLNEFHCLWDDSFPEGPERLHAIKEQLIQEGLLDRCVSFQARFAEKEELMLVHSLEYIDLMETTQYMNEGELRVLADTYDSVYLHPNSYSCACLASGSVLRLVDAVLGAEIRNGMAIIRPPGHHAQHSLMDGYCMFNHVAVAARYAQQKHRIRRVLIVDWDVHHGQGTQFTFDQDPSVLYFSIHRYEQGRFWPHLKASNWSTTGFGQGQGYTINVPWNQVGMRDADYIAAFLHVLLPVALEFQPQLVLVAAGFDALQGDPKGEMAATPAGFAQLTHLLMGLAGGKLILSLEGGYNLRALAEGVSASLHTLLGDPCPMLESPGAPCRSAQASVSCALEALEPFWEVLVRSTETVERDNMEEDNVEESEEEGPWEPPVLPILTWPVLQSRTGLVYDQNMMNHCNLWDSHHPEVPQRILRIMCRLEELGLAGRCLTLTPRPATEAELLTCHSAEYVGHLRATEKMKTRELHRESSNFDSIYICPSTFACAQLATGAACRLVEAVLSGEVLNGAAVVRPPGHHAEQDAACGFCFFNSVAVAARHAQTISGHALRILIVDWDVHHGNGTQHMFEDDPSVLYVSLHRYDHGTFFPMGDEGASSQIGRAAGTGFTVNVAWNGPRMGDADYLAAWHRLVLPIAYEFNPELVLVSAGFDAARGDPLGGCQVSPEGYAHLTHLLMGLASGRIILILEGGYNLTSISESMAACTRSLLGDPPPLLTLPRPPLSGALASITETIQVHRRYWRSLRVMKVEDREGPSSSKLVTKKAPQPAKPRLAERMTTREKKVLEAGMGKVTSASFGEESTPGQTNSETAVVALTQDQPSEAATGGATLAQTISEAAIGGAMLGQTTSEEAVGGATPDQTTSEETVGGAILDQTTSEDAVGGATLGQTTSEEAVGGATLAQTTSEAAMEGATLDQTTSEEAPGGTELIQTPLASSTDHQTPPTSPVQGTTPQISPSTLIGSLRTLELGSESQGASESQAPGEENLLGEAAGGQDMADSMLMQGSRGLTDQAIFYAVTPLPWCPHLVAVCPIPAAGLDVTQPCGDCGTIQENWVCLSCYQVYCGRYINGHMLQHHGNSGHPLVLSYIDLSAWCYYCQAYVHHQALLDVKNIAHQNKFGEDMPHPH

[4] = system: HeLa; assay: Cytotoxicity against human HeLa cells after 72 hrs by XTT assay; type: functional
[5] = system: K562; assay: Cytotoxicity against human K562 cells after 72 hrs by XTT assay; type: functional; settings: K562, 72 h
[6] = Cytotoxicity against human KYO1 cells after 72 hrs by XTT assay; type: functional; settings: KYO1, 72 h
[7] = target: Histone deacetylase 3/Nuclear receptor corepressor 2 (HDAC3/NCoR2) (Homo sapiens, UniProt O15379); assay: Inhibition of human recombinant HDAC3/NCoR2 using Ac-Lys(Ac)-7-amino-4-methylcoumarin as substrate after 30 mins by trypsin-coupled fluorogenic assay; type: protein-complex assay
Sequence of Histone deacetylase 3/Nuclear receptor corepressor 2 (HDAC3/NCoR2) (O15379 whole entry): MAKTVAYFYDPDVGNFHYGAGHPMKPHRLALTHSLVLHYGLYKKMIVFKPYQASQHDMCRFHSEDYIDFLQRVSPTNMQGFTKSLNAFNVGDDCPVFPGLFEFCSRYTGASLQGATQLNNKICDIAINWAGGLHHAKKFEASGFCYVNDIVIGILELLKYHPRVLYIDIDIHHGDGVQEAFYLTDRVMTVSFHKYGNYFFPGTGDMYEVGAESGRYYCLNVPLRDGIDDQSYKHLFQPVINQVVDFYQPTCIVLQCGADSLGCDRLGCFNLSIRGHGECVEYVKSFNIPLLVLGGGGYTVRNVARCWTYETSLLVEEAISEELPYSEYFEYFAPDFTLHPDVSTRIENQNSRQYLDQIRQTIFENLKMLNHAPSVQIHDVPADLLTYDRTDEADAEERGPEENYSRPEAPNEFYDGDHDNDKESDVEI
Sequence of Histone deacetylase 3/Nuclear receptor corepressor 2 (HDAC3/NCoR2) (Q9Y618 whole entry, further chain): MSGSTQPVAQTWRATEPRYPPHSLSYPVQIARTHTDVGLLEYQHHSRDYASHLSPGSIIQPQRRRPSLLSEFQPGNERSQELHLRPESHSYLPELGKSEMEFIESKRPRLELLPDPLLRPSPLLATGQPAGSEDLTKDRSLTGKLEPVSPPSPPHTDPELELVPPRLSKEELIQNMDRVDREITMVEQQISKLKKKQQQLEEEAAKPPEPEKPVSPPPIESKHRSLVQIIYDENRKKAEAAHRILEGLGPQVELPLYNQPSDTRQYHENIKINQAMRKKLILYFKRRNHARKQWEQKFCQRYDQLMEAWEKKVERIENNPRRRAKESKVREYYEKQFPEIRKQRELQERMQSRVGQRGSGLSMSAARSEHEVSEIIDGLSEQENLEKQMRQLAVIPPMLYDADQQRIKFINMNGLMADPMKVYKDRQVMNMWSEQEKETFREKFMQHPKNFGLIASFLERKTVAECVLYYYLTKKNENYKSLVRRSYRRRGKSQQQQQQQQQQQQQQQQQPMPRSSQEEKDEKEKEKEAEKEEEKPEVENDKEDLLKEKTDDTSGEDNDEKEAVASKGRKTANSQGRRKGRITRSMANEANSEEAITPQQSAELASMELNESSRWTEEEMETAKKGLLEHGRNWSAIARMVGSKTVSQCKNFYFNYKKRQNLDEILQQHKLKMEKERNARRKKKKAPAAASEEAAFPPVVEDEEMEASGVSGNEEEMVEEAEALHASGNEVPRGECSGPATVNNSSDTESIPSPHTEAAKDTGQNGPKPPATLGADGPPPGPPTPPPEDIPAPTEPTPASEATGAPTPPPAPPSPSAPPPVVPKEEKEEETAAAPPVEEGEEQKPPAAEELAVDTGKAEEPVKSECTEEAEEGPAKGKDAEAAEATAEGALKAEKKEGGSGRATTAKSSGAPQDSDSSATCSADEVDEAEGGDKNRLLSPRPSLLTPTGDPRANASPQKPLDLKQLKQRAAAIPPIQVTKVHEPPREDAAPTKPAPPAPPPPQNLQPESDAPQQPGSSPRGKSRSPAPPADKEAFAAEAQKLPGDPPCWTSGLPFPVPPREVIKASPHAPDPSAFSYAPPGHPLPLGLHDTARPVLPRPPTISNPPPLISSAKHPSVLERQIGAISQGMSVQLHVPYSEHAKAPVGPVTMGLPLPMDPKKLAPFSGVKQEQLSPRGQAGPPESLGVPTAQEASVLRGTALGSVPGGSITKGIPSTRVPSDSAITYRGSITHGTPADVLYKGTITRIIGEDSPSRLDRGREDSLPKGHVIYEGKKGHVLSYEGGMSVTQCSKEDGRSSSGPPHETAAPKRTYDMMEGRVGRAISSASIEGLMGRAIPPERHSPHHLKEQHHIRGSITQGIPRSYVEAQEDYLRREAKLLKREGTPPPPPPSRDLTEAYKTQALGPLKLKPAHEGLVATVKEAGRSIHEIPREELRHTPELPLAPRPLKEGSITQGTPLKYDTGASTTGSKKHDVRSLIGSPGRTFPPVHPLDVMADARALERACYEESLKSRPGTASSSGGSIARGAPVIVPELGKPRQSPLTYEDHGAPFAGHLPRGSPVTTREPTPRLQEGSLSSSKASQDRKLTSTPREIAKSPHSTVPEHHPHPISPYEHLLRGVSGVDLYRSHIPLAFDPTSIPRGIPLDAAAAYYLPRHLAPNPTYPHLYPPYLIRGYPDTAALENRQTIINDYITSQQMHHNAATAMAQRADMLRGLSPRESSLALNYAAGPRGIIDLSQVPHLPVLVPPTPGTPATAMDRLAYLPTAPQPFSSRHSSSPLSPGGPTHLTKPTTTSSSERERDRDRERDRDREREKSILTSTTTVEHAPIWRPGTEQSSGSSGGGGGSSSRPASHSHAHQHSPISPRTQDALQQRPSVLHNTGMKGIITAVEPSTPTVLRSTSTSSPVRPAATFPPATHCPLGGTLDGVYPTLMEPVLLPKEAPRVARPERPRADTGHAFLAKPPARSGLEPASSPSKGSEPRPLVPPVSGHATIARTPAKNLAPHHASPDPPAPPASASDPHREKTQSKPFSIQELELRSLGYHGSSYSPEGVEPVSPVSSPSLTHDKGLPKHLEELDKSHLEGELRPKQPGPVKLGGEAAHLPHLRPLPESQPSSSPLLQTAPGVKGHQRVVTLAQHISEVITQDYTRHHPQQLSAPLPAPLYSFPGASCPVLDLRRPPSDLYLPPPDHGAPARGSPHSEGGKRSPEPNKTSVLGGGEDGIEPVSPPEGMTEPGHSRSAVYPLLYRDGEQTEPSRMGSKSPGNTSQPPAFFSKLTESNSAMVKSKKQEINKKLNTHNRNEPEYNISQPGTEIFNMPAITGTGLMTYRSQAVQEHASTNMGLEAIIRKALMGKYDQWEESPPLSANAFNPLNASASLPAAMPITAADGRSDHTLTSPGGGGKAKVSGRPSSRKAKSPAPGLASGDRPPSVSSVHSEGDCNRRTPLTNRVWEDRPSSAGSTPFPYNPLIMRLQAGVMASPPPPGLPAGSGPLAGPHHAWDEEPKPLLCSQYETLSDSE

[8] = system: MCF7; assay: Cytotoxicity against human MCF7 cells after 72 hrs by XTT assay; type: functional; settings: MCF7, 72 h
[9] = system: HCT-116; assay: Cytotoxicity against human HCT116 cells after 72 hrs by XTT assay; type: functional; settings: HCT-116, 72 h
[10] = target: Histone deacetylase; assay: Inhibition of HDAC in human HeLa cell extracts by fluorimetric assay; type: protein assay
[11] = target: T2, Histone deacetylase 8 (Homo sapiens, UniProt Q9BY41); assay: Inhibition of human recombinant HDAC8 using Arg-His-Lys(Ac)-Lys(Ac)-AMC as substrate after 30 mins by trypsin-coupled fluorogenic assay
T2 sequence (Q9BY41 whole entry): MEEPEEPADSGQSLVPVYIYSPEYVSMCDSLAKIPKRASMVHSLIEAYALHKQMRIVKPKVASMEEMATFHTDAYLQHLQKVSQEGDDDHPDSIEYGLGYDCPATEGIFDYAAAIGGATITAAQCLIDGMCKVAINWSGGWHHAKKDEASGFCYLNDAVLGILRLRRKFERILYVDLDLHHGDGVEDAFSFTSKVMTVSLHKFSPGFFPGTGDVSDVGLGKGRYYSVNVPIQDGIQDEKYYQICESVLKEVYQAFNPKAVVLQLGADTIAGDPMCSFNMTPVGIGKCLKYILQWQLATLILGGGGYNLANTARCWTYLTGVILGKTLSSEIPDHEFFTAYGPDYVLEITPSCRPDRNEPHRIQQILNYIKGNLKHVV

[12] = target: Histone deacetylase (Homo sapiens) (UniProt Q13547+O15379+Q9UBN7+Q92769+Q9UQL6+Q8WUI4+Q9BY41+Q96DB2+P56524+Q9UKV0+Q969S8); settings: Jurkat, 2 to 20 uM
Description: Inhibition of HDAC in human Jurkat cells assessed as increase of acetylated-histone H3 level at 2 to 20 uM after 24 hrs by Western blot analysis

[13] = target: T3, Protein deacetylase HDAC6 (Homo sapiens) (UniProt Q9UBN7); settings: Jurkat, 2 to 20 uM
T3 sequence (whole entry): T1 sequence (Q9UBN7 whole entry)
Description: Inhibition of HDAC6 in human Jurkat cells assessed as increase of acetylated alpha-tubulin level at 2 to 20 uM after 24 hrs by Western blot analysis

Sequence of Histone deacetylase 2 (Q92769 whole entry): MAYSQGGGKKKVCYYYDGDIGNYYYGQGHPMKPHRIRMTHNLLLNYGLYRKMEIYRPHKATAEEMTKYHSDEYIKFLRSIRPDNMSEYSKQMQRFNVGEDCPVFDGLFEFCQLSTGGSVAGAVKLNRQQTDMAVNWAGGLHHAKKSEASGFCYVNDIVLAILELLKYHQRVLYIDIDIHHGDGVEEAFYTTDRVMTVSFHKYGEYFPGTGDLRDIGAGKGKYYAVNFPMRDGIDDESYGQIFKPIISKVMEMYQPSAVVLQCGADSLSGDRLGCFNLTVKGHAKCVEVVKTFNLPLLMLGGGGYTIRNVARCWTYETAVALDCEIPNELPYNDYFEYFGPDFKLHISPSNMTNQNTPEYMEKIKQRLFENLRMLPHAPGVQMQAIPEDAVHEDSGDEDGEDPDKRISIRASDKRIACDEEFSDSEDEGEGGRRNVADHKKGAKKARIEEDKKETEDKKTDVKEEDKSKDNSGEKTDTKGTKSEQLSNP

Row | Compound | IC50 [1] [µM] | IC50 [3] [µM] | IC50 [10] [µM] | GI50 [4] [µM] | GI50 [5] [µM] | GI50 [6] [µM] | GI50 [8] [µM] | GI50 [9] [µM] | further results
1 | CCC(=O)CCCCC[C@@H]1NC(=O)[C@H](C)N(C)C(=O)CCN(CC(C)C)C(=O)CN(Cc2cccc3ccccc23)C1=O | – | – | 18 | – | – | – | – | – | –
2 | CCC(=O)CCCCC[C@@H]1NC(=O)[C@H](C)N(C)C(=O)CCN(CC(C)C)C(=O)CN(Cc2ccc(C)cc2)C1=O | – | – | > 100 | – | – | – | – | – | –
3 | CCC(=O)CCCCC[C@@H]1NC(=O)[C@H](C)N(C)C(=O)C[C@H](CC(C)C)NC(=O)[C@H](Cc2c[nH]c3ccccc23)NC1=O | 0.07 | > 10 | – | 4 | 7 | 7.5 | 18 | – | IC50 [11]: 2.2 µM
4 | CCC(=O)CCCCCN1CC(=O)N(CCc2c[nH]c3ccccc23)CC(=O)N(CC(C)C)CCC(=O)N(C)[C@@H](C)C1=O | – | – | > 10 | – | – | – | – | – | –
5 | CCC(=O)CCCCC[C@@H]1NC(=O)[C@H](C)N(C)C(=O)CCN(CC(C)C)C(=O)CN(Cc2ccccc2)C1=O | – | – | > 100 | – | – | – | – | – | –
6 | CCC(=O)CCCCC[C@@H]1NC(=O)[C@H](C)N(C)C(=O)CCN(CC(C)C)C(=O)CN(CC2CCCCC2)C1=O | – | – | > 100 | – | – | – | – | – | –
7 | CCC(=O)CCCCC[C@@H]1NC(=O)[C@H]2CCCCN2C(=O)[C@H]([C@@H](C)CC)NC(=O)[C@H](Cc2cn(OC)c3ccccc23)NC1=O [APICIDIN] | – | – | – | 2 | 1.5 | 2.7 | 5 | 1 | –
8 | CCC(=O)CCCCC[C@@H]1NC(=O)[C@H](C)N(C)C(=O)CCN(CC(C)C)C(=O)CN(CCc2ccccc2)C1=O | – | – | > 100 | – | – | – | – | – | –
9 | CCC(=O)CCCCCN1CC(=O)N(Cc2cccc3ccccc23)CC(=O)N(CC(C)C)CCC(=O)N[C@@H](C)C1=O | – | – | > 10 | – | – | – | – | – | –

The next lines start with results.

Row | IC50 [1] [µM] | IC50 [3] [µM] | IC50 [10] [µM] | Compound | GI50 [4] [µM] | GI50 [5] [µM] | GI50 [6] [µM] | GI50 [8] [µM] | GI50 [9] [µM] | further results
10 | 2 | > 10 | 1 | CCC(=O)CCCCC[C@@H]1NC(=O)[C@H](C)N(C)C(=O)CCN(CC(C)C)C(=O)CN(CCc2c[nH]c3ccccc23)C1=O | 30 | 15 | 18 | > 50 | 28 | IC50 [2]: 0.54 µM; IC50 [7]: 0.65 µM
11 | – | – | > 10 | CCC(=O)CCCCC[C@@H]1NC(=O)[C@H](C)N(C)C(=O)C[C@H](CC(C)C)NC(=O)CN(CCc2c[nH]c3ccccc23)C1=O | – | – | – | – | – | –
12 | 0.37 | > 10 | 0.21 | CCC(=O)CCCCC[C@@H]1NC(=O)[C@H](CCCCNC(C)=O)NC(=O)CCN(CC(C)C)C(=O)CN(CCc2c[nH]c3ccccc23)C1=O | 38 | 1.5 | 10 | > 50 | 50 | IC50 [2]: 0.2 µM; IC50 [7]: 0.32 µM
13 | 0.3 | > 10 | 0.06 | CCC(=O)CCCCC[C@@H]1NC(=O)[C@H](CCCNC(=N)N)NC(=O)CCN(CC(C)C)C(=O)CN(CCc2c[nH]c3ccccc23)C1=O | > 50 | > 50 | > 50 | > 50 | > 50 | inhibition [12]: Active; IC50 [2]: 0.18 µM; inhibition [13]: inactive; IC50 [7]: 0.1 µM; IC50 [11]: 0.75 µM
14 | – | – | > 10 | CCC(=O)CCCCC[C@@H]1NC(=O)[C@H](C)N(C)C(=O)CCN(CC(C)C)C(=O)[C@H](Cc2c[nH]c3ccccc23)NC1=O | – | – | – | – | – | –
15 | 1.2 | > 10 | 0.25 | CCC(=O)CCCCC[C@@H]1NC(=O)[C@H](CCCNC(=N)N)NC(=O)CCN(CC=C(C)C)C(=O)CN(CCc2c[nH]c3ccccc23)C1=O | > 50 | – | – | > 50 | > 50 | IC50 [2]: 0.7 µM; IC50 [7]: 0.27 µM

Source: ChEMBL document CHEMBL2169795, “Macrocyclic peptoid-Peptide hybrids as inhibitors of class I histone deacetylases” (ACS Med Chem Lett, 2012)
